Reference: patent publication US4229584A, “Ureylenebis(anionic substituted phenylene carbonyl)imino naphthalene sulfonic acids and naphthalene carboxylic acids and their salts” (American Cyanamid Company, priority 1978, dated 1980)
Counter-ions that a name gives are not always drawn. Like-named read-outs stand apart in the source and are kept apart here.

Tests used:
complement system = conditions: cited from earlier work; for anticomplementary effect: British Journal of Experimental Pathology, 33, 327-339 (1952)
[1] = test system: late components of human complement (C3-C9); test: Test, Code 035 (C3-C9 inhibitor): lysis of EAC 142 by late components of human complement; type: cell-based; conditions: activity in wells, twofold serial dilution; higher well number indicates higher activity
Excerpt: (§1) An active inhibitor protects C2 from C1 and C4; (ii) Test, Code 035 (C3-C9 inhibitor)--This test determines the ability of the late components of human complement (C3-C9) to lyse EAC 142 in the presence of appropriate dilutions of the test compound. An active inhibitor protects EAC 142 from lysis by human C3-C9; (iii) Test, Code 036 (C-Shunt inhibitor)--In this test human erythrocytes rendered fragile are lysed in autologous serum via the shunt pathway activated by cobra venom factor in the presence of appropriate dilutions of the test compound. Inhibition of the shunt pathway results in failure of lysis; (iv) Forssman Vasculitis Test--Here, the well known complement dependent lesion, Forssman vasculitis, is produced in guinea pigs by intradermal injection of rabbit anti-Forssman antiserum. The lesion is measured in terms of diameter, edema and hemorrhage and the extent to which a combined index of these is inhibited by prior intraperitoneal injection of the test compound at 200 mg/kg is then reported, unless otherwise stated; (v) Forssman Shock Test--Lethal shock is produced in guinea pigs by an i.v. injection of anti-Forssman antiserum and the harmonic mean death time of treated guinea pigs is compared with that of simultaneous controls; (vi) Complement Level Reduction Test--In this test, the above dosed guinea pigs, or others, are bled for serum and the complement level is determined in undiluted serum by the capillary tube method of U.S. Pat. No. 3,876,376 and compared to undosed control guinea pigs; and (vii) Cap 50 Test--Here, appropriate amounts of the test compound are added to a pool of guinea pig serum in vitro, after which the undiluted serum capillary tube assay referred to above is run. The concentration of compound inhibiting 50% is reported.
(§2) **Activity in wells, a serial dilution assay. Higher well number indicate
(§3) higher activity. The serial dilutions are twofold.

whole complement = test: In vivo complement inhibition in guinea pigs (whole complement of serum, capillary tube assay); parameters: species or system guinea pig; conditions: Cavia porcellus, ip
Excerpt: as §1
With reference to Table I, guinea pigs weighing about 300 g were dosed intravenously (i.v.) or intraperitoneally (i.p.) with 200 mg/kg of the test compound dissolved in saline and adjusted to pH 7-8. […] The serum was tested for whole complement using the capillary tube assay. Percent inhibition was calculated by comparison with simultaneous controls. The results appear in Table I together with results of tests, Code 026, 035, 036, Cap 50, percent inhibition and Forssman shock.

human C1 = molecular target: T1, human C1 (Homo sapiens, UniProt P09871); test: Test, Code 026 (C1 inhibitor): protection of fluid phase human C2 from activated human C1; type: biochemical; conditions: activity in wells, twofold serial dilution; higher well number indicates higher activity
T1 construct: substrate fluid phase human C2, in presence of C4
T1 sequence (P09871 16-688): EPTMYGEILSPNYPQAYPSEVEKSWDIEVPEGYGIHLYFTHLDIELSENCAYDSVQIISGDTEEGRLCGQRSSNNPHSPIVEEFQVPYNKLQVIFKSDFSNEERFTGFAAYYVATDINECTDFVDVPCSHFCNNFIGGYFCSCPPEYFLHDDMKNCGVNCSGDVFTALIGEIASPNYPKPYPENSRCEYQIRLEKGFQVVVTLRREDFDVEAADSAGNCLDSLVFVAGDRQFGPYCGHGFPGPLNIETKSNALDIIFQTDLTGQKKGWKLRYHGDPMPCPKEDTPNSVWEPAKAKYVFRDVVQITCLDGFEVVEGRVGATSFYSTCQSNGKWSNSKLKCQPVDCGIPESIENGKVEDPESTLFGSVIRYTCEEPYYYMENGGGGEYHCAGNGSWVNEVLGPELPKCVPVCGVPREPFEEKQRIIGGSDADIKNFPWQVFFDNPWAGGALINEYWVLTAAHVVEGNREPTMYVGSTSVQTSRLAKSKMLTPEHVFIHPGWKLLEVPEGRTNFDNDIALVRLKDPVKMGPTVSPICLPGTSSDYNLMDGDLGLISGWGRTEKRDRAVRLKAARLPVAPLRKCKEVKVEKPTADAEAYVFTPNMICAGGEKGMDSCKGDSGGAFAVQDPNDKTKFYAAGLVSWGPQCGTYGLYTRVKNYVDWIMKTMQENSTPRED
T1 sequence (P00736 18-705 partner): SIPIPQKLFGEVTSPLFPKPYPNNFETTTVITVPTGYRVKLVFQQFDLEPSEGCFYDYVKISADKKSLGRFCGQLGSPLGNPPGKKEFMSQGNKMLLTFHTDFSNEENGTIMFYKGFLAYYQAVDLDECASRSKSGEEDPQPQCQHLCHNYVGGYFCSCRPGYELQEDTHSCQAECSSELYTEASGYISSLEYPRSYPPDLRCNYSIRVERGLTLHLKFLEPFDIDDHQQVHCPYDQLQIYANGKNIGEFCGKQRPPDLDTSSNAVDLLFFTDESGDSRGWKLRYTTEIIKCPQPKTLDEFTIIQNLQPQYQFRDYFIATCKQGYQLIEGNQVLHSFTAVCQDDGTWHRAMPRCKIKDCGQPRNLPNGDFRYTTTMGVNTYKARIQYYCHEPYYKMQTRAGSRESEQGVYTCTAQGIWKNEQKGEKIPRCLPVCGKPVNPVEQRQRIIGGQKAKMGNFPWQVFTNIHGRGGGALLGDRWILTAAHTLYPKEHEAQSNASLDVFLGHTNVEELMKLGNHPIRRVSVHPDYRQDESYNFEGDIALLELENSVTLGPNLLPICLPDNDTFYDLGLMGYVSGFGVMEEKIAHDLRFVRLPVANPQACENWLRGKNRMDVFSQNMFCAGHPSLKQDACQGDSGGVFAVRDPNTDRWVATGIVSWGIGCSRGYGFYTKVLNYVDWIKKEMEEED
T1 sequence (P02745 23-245 partner): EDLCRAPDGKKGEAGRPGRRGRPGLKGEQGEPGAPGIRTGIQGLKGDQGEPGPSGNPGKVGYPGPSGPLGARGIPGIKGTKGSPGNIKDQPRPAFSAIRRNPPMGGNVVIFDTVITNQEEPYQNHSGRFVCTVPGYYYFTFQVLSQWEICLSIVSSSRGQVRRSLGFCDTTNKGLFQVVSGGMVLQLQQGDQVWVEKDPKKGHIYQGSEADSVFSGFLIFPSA
T1 sequence (P02746 28-253 partner): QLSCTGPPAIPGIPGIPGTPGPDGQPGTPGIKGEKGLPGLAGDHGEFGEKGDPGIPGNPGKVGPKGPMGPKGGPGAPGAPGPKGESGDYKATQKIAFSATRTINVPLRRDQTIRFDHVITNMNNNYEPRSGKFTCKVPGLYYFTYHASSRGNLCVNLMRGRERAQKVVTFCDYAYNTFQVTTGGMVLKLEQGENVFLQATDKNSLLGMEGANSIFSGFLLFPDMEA
T1 sequence (P02747 29-245 partner): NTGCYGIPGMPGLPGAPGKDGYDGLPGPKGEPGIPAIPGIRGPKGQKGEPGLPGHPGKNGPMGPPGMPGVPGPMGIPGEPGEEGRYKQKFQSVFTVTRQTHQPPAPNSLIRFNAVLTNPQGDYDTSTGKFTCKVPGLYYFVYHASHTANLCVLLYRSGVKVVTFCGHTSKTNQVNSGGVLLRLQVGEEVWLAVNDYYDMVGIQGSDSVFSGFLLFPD
Excerpt: as §1, §2, §3

shunt pathway = test: Test, Code 036 (C-Shunt inhibitor): lysis of human erythrocytes in autologous serum via shunt pathway activated by cobra venom factor; type: cell-based; conditions: activity in wells, twofold serial dilution; higher well number indicates higher activity
Excerpt: as §1, §2, §3

[2] = The New England Journal of Medicine, 286, 808-812 (1972); cited from earlier work
[3] = 0.5 h, read-out: In Vivo Activity (Guinea Pig) % Inhibition Intraperitoneal 30 mins.
[4] = 1 h, read-out: In Vivo Activity (Guinea Pig) % Inhibition Intraperitoneal 60 mins.
[5] = 2 h, read-out: In Vivo Activity (Guinea Pig) % Inhibition Intraperitoneal 120 mins.
[6] = 0.5 h, intraperitoneal, 200 mg/kg, 30 mins., read-out: In Vivo Activity (Guinea Pig) % Inhibition Intraperitoneal 30 mins.
[7] = 1 h, intraperitoneal, 200 mg/kg, 60 mins., read-out: In Vivo Activity (Guinea Pig) % Inhibition Intraperitoneal 60 mins.
[8] = 2 h, intraperitoneal, 200 mg/kg, 120 mins., read-out: In Vivo Activity (Guinea Pig) % Inhibition Intraperitoneal 120 mins.

Compound	C-Late 035* Wells [1]	change in vivo at 200 mg/kg (whole complement; [3])	change in vivo at 200 mg/kg (whole complement; [4])	change in vivo at 200 mg/kg (whole complement; [5])	C1 026* Wells (human C1)	Shunt Inhibition 036* Wells (shunt pathway)	other results
Cc1ccc(C(=O)Nc2ccc(S(=O)(=O)O)c3cc(S(=O)(=O)O)cc(S(=O)(=O)O)c23)cc1NC(=O)c1cccc(NC(=O)Nc2cccc(C(=O)Nc3cc(C(=O)Nc4ccc(S(=O)(=O)O)c5cc(S(=O)(=O)O)cc(S(=O)(=O)O)c45)ccc3C)c2)c1 [Suramin]	–	–	–	–	–	–	inhibition of the complement system (complement system; Clin. Exp. Immunol., 10, 127-138 (1972)): competitive inhibitor of the complement system
O=C(Nc1ccc(C(=O)Nc2cc(S(=O)(=O)[O-])cc3ccc(S(=O)(=O)[O-])cc23)c(S(=O)(=O)[O-])c1)Nc1ccc(C(=O)Nc2cc(S(=O)(=O)[O-])cc3ccc(S(=O)(=O)[O-])cc23)c(S(=O)(=O)[O-])c1.[Na+].[Na+].[Na+].[Na+].[Na+].[Na+] [4,4'-{Ureylenebis[(2-sulfo-4,1-phenylenecarbonyl)imino]}-di-2,6-naphthalenedisulfonic acid hexasodium salt]	N	-3%	-4%	-11%	+5 Wells	N	–
NC[C@H]1CC[C@H](C(=O)O)CC1 [tranexamic acid]	–	–	–	–	–	–	treatment of hereditary angioneurotic edema [2]: used with success
CC(=O)Nc1ccc2c(S(=O)(=O)O)cc(S(=O)(=O)O)cc2c1NC(=O)c1ccc(NC(=O)Nc2ccc(C(=O)Nc3c(NC(C)=O)ccc4c(S(=O)(=O)O)cc(S(=O)(=O)O)cc34)c(S(=O)(=O)O)c2)cc1S(=O)(=O)O [5,5'-[Ureylenebis(2-sulfo-1,4-phenylenecarbonylimino)]bis[6-acetamido-1,3-naphthalenedisulfonic acid]hexasodium salt]	N	–	–	–	+8 Wells	+1 Wells	change in vivo at 200 mg/kg (whole complement; [6]): -19%; change in vivo at 200 mg/kg (whole complement; [7]): 8%; change in vivo at 200 mg/kg (whole complement; [8]): 4%
O=C(Nc1cc(C(=O)O)cc(C(=O)Nc2ccc(S(=O)(=O)O)c3cc(S(=O)(=O)O)cc(S(=O)(=O)O)c23)c1)Nc1cc(C(=O)O)cc(C(=O)Nc2ccc(S(=O)(=O)O)c3cc(S(=O)(=O)O)cc(S(=O)(=O)O)c23)c1 [5,5'-Ureylenebis[N-(4,6,8-trisulfo-1-naphthyl)isophthalamic acid]octasodiumsalt]	+1 Wells	–	–	–	+5 Wells	+2 Wells	change in vivo at 200 mg/kg (whole complement; [6]): -40%; change in vivo at 200 mg/kg (whole complement; [7]): -49%; change in vivo at 200 mg/kg (whole complement; [8]): -71%
O=C(Nc1ccc(C(=O)Nc2ccc(S(=O)(=O)[O-])c3ccc(S(=O)(=O)[O-])cc23)c(S(=O)(=O)[O-])c1)Nc1ccc(C(=O)Nc2ccc(S(=O)(=O)[O-])c3ccc(S(=O)(=O)[O-])cc23)c(S(=O)(=O)[O-])c1.[Na+].[Na+].[Na+].[Na+].[Na+].[Na+] [4,4'-{Ureylenebis[(2-sulfo-4,1-phenylenecarbonyl)imino]}-di-1,6-naphthalenedisulfonic acid hexasodium salt]	N	-3%	-4%	6%	+5 Wells	N	–
O=C(Nc1ccc(C(=O)Nc2cc(S(=O)(=O)O)cc3cccc(S(=O)(=O)O)c23)c(S(=O)(=O)O)c1)Nc1ccc(C(=O)Nc2cc(S(=O)(=O)O)cc3cccc(S(=O)(=O)O)c23)c(S(=O)(=O)O)c1 [8,8'-[Ureylenebis(2-sulfo-4,1-phenylenecarbonyl)imino]di-1,6-naphthalenedisulfonic acid hexasodium salt]	+1 Wells	–	–	–	+5 Wells	+1 Wells	change in vivo at 200 mg/kg (whole complement; [6]): -10%; change in vivo at 200 mg/kg (whole complement; [7]): -18%; change in vivo at 200 mg/kg (whole complement; [8]): -31%
O=C(Nc1ccc(C(=O)Nc2ccc(S(=O)(=O)[O-])c3cc(S(=O)(=O)[O-])cc(O)c23)c(S(=O)(=O)[O-])c1)Nc1ccc(C(=O)Nc2ccc(S(=O)(=O)[O-])c3cc(S(=O)(=O)[O-])cc(O)c23)c(S(=O)(=O)[O-])c1.[Na+].[Na+].[Na+].[Na+].[Na+].[Na+] [4,4'-Ureylenebis[(2-sulfo-4,1-phenylenecarbonyl)imino]bis[5-hydroxy-1,7-naphthalenedisulfonic acid] hexasodium salt]	N	1%	-3%	-24%	+7 Wells	+5 Wells	–
Nc1ccc2cc(S(=O)(=O)O)cc(O)c2c1N=Nc1ccc(NC(=O)Nc2ccc(N=Nc3c(N)ccc4cc(S(=O)(=O)O)cc(O)c34)c(S(=O)(=O)O)c2)cc1S(=O)(=O)O [chlorazol fast pink, 3,3'-ureylenebis-[6-(2-amino-8-hydroxy-6-sulfo-1-naphthylazo)]benzenesulfonic acid, tetrasodium salt]	–	–	–	–	–	–	anticomplementary effect (complement system): anticomplementary effect
O=C(Nc1ccc(C(=O)Nc2ccc(S(=O)(=O)[O-])c3cccc(S(=O)(=O)O)c23)c(S(=O)(=O)[O-])c1)Nc1ccc(C(=O)Nc2ccc(S(=O)(=O)O)c3cccc(S(=O)(=O)O)c23)c(S(=O)(=O)[O-])c1.[Na+].[Na+].[Na+] [4,4'-{Ureylenebis[(2-sulfo-4,1-phenylenecarbonyl)imino]}-di-1,5-naphthalenedisulfonic acid trisodium salt]	N	-10%	6%	-6%	+7 Wells	+1 Wells	–
NCCCCCC(=O)O [epsilon-aminocaproic acid]	–	–	–	–	–	–	treatment of hereditary angioneurotic edema [2]: used with success
heparin	–	–	–	–	–	–	anticomplementary effect (complement system): anticomplementary effect
